From patent publication US12502440B2, “Cross-linking compounds and methods of use thereof” (North Carolina State University, priority 2019, dated 2025)
Values joined by “and” are separate entries in the source; they are usually repeats but may differ in a detail not shown here. Equal entries are not always repeated.

Columns and labels:
[1] = target: T1, β-glucosidase from Agrobacterium (Agrobacterium sp., UniProt P12614); experiment: Indigogenic reaction with β-glucosidase from Agrobacterium; type: biochemical; settings: as E4 but ε measured for 43 (footnote g)
T1 construct: purchased Megazyme
T1 sequence (P12614 1-459): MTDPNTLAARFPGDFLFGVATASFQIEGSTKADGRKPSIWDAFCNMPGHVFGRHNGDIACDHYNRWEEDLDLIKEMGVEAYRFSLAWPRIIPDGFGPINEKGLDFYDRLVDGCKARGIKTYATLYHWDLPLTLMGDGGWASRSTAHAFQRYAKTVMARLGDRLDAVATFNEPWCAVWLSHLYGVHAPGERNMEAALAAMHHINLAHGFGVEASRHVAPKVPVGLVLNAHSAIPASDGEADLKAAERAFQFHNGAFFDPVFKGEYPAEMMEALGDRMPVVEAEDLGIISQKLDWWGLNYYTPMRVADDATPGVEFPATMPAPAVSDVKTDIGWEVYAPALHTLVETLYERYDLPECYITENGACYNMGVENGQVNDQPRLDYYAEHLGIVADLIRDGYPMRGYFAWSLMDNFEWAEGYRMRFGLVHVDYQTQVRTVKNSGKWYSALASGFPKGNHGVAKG
Method: Next, the β-glucosidase from Agrobacterium sp. was investigated as the trigger enzyme for indigoid dye formation. […] The reaction was carried out using the enzyme (200 nM) and indoxyl-glucoside 33 (100 μM) in phosphate buffer (pH 4-9, containing 2% DMF) at 37° C. […] Note that with 200 nM enzyme and 100 μM substrate, complete reaction requires 500 turnovers of each enzyme.
Reactions with β-glucosidase from Agrobacterium. An indoxyl compound in DMF (2 μL, 5 mM) and β-glucosidase from Agrobacterium in 10 mM phosphate buffer [2 μL, 10 μM, pH 7.0, containing 50 mM NaCl and 0.6 M (NH4)2SO4] were mixed with 50 mM phosphate buffer (96 μL, pH 7.0). The reaction mixture was incubated at 37° C. for 2 h and then centrifuged for 3 min. Any precipitate was separated from the supernatant and dissolved in DMF (200 μL). The resulting solution was analyzed by absorption spectroscopy. The experiment was repeated three times.

[2] = Solubility in aqueous buffer; type: physicochemical; settings: 100 mM phosphate buffer (pH 7.4, containing 100 mM NaCl), room temperature
Excerpt: Water solubility of the indoxyl glucoside is important for biological applications. […] Therefore, this compound is not suitable for bioconjugation. The synthesis of 34 relies on successive substitution of the dichloroanilinotriazine unit (derived from N,N-bis(2-methoxyethyl)aniline^31 and cyanuric chloride) with indoxyl-glucoside-PEG-OH and BCN-PEG-NH2 building blocks.
To improve the water solubility of the indoxyl species, a sulfobetaine unit^32,33 was incorporated as a water-solubilizing group. Sulfobetaines are stable zwitterions over a wide range of pH. Synthesis of an indoxyl bearing a sulfobetaine unit is illustrated in Scheme 6. Boc-piperazine (35) was treated with 1,3-propane sultone to afford 36 in 63% yield. Quaternization of the tertiary nitrogen atom in 36 with 3-bromopropanol gave Boc-protected sulfobetaine 37 in 69% yield. The Boc group was cleaved with trifluoroacetic acid (TFA) to afford piperazine-TFA salt 38 in 97% yield. The N-acetyl group of 32 was selectively deprotected with NaHCO3/MeOH in 84% yield. The product 39, piperazine-TFA salt 38, and BCN-amine 14 were assembled at a triazine ring via one-flask, successive substitution of cyanuric chloride to afford 40 in 51% yield. Cleavage of the acetyl groups of sulfobetaine 40 provided 41 in 98% yield.

[3] = target: T2, β-glucosidase from Agrobacterium sp. (Agrobacterium sp., UniProt P12614); experiment: Oligomerization of compound V with β-glucosidase; type: biochemical
T2 construct: purchased Megazyme
T2 sequence (P12614 1-459): T1 sequence (P12614 1-459)
Method: The oligomerization of compound V was examined by treatment with the enzyme-glucosidase. The reaction mixture contained 50 μM of compound V and 200 nM of β-glucosidase (250-fold ratio). The reaction mixture was only faintly blue but upon centrifugation after 5 h of incubation, a blue precipitate was obtained. According to the colors of samples (FIG. 13, panel A), the yield of precipitate is low by comparison with our previously reported enzyme-substrate pairs (see Example 1). Multiple additions of enzyme (4×0.20 μM of enzyme stock, every 2 h) and longer incubation times (10 h or 24 h) were also tested but no increase in solution intensity or precipitate was observed. For the samples after 300 min of incubation, the precipitates suspended in H2O were screened by optical microscopy (FIG. 13, panel B) and DLS (FIG. 13, panel C). The size of aggregates is between 100 and 1000 nm as measured by DLS, which is consistent with the images obtained by optical microscopy (˜1 μm).
Quantitation of the indigogenic compounds in the precipitate and supernatant was carried out by absorption spectroscopy and multicomponent analysis (MCA) (M. Taniguchi, et al., Photochem. Photobiol., 2018, 94, 277-289) (FIG. 13, panels D and E). MCA analysis is essential due to the overlaid spectra of indigo and coumarin at 362 nm, the peak wavelength for the coumarin. Spectral deconvolution relied on knowledge of the molar absorption coefficient at 362 nm of coumarin (εcou362=2.0×10^4 M^−1 cm^−1, measured in DMF) and indigo model compound F19 (see Example 1 where F-19 is compound 43) shown in Chart 2 (εind362=0.81×10^4 M^−1 cm^−1, measured in DMSO/H2O, v/v=2/1); and the molar absorption coefficient of F19 at 630 nm (εind630=2.6×10^4 M^−1 cm^−1, measured in DMSO/H2O, v/v=2/1). The residual upon MCA was smaller than any of the components, as required for accurate analysis (Y. Zhang, et al., Phytochem. Anal., 2018, 29, 205-216). In this manner, the precipitate is composed of 51.6 nmol of coumarin and 2.8 nmol of indigoid dye; the supernatant is composed of 11.1 nmol of coumarin and 0.3 nmol of indigoid dye.
Materials. DMF (HPLC grade) was purchased from Alfa Aesar. H2O (molecular biology grade) for buffer preparation was purchased from Millipore Sigma. Compound V (5.6 mg) was dissolved in DMF (26 μL) to prepare 100 mM stock solution. Pi buffer was prepared freshly at 10 mM, pH 7. The enzyme β-glucosidase from Agrobacterium sp. was purchased from MegaZyme and was dissolved in Pi buffer at 10 μM to prepare the stock solution.
To screen the oligomerization procedure of compound V, samples of Pi buffer (1859 μL), DMF (100 μL), […]-glucosidase stock (40 μL) and compound V stock (1 μL) were mixed in a 2-mL Eppendorf tube. The resulting mixed sample (2.0 mL) contains 50 μM of compound V as the substrate and 0.20 μM of β-glucosidase as the enzyme. Three identical samples were prepared for different assays. For a control sample, 40 μL of Pi buffer was added as a replacement for the β-glucosidase stock solution. The tubes were incubated at 37° C. for 5 h, and pictures of the tubes were captured at 0, 15, 30, 60, 120, 180 and 300 min. After 300 min, the tubes were centrifuged at 20,000×g for 10 min to isolate any precipitate from the supernatant. No precipitate formed in the control sample.
Three samples were treated differently for three assays: (1) for sample 1, the precipitate was dissolved in 100 μL of DMF for absorption screening; (2) for sample 2, the precipitate was suspended in 100 μL of H2O for microscopic imaging; and (3) for sample 3, the precipitate was suspended in 1000 μL of H2O for dynamic light scattering (DLS) assay. The supernatant of sample 1 was freeze-dried under high vacuum and afterwards dissolved in 100 μL of DMF for absorption screening. The absorption spectra of the precipitates and supernatants were employed for quantitation of indigo and coumarin. […]

[4] = system: β-glucosidase from almonds; experiment: Indigogenic reaction with β-glucosidase from almonds; type: biochemical; settings: as E1 but ε measured for 43 (footnote g)
rat liver homogenate = experiment: Indigoid-dye formation in rat liver homogenate; type: biochemical; settings: as E7 but ε measured for 43 (footnote g)
Method: Finally, indigoid-dye formation was carried out in rat liver homogenate (Table 1, rightmost column).
Reactions in rat liver homogenate. An indoxyl compound in DMF (5 μL, 20 mM) was mixed with rat liver homogenate (95 μL). The reaction mixture was incubated at 37° C. for 24 h. After allowing to cool to room temperature, the reaction mixture was diluted with DMF (900 μL). The mixture was heated at 70° C. for 2 min and then centrifuged for 2 min. The supernatant was separated from any precipitate. This extraction procedure was repeated two or three times with DMF (100-500 μL). The combined supernatant (1500-1800 μL) was analyzed by absorption spectroscopy.

[5] = target: T3, β-glucosidase from Agrobacterium plus rat liver homogenate (Agrobacterium sp., UniProt P12614); experiment: Reaction of 33 with β-glucosidase from Agrobacterium in rat liver homogenate; type: biochemical; settings: 33 100 μM, enzyme 200 nM, rat liver homogenate with 2% DMF, 37° C., 4 h; ε measured for 43 (footnotes g,h)
T3 construct: purchased Megazyme
T3 sequence (P12614 1-459): T1 sequence (P12614 1-459)
Method: Reaction of 33 with β-glucosidase from Agrobacterium in rat liver homogenate. A DMF solution of 33 (2 μL, 5 mM) and β-glucosidase from Agrobacterium in 10 mM phosphate buffer [2 μL, 10 μM, pH 7.0, containing 50 mM NaCl and 0.6 M (NH4)2SO4] were mixed with rat liver homogenate (96 μL). The reaction mixture was incubated at 37° C. for 4 h and then centrifuged for 3 min. Any precipitate was separated from the supernatant and then suspended in DMF (200 μL). The suspension was centrifuged for 3 min. The supernatant was analyzed by absorption spectroscopy.

[6] = 50 μM compound V (100 nmol), 200 nM β-glucosidase, 37° C., 300 min, MCA
[7] = 50 μM compound V (100 nmol), 200 nM β-glucosidase, 37° C., 300 min, absorption spectroscopy with MCA

SMILES	Yield (%) of indigoid dye, β-glucosidase from Agrobacterium [1]	solubility [2] [µM]	total amount of coumarin calculated by MCA ([3]; 100 nmol compound V added) [nmol]	coumarin in the precipitate [3, 6] [nmol]	coumarin in the supernatant [3, 6] [nmol]	indigoid dye in the precipitate [3, 7] [nmol]	indigoid dye in the supernatant [3, 7] [nmol]	total quantity of indigoid dye ([3]; precipitate plus supernatant, 100 nmol compound V added) [nmol]	yield of indigoid dye ([3]; total indigoid dye, 100 nmol compound V added) [%]	Yield (%) of indigoid dye, β-glucosidase from almonds [4]	Yield (%) of indigoid dye, rat liver homogenate (rat liver homogenate) [%]	Yield (%) of indigoid dye, β-glucosidase from Agrobacterium plus rat liver homogenate [5]
O=C(NCCOCCOCCNc1nc(OCCOCCOCCOc2c(Br)cc3[nH]cc(OC4O[C@H](CO)[C@@H](O)[C@H](O)[C@H]4O)c3c2Br)nc(N2CC[N+](CCCO)(CCCS(=O)(=O)[O-])CC2)n1)OC[C@@H]1[C@@H]2CCC#CCC[C@@H]21 (stereo partly shown) [compound 41]	106% and 106 ± 4^g %	> 400										
Cc1cc(=O)oc2cc(NCCNc3nc(NCCOCCOCCOCCOCCOCCN=[N+]=[N-])nc(OCCC[N+]4(CCCS(=O)(=O)[O-])CCN(c5nc(OCCOCCOCCOc6c(Br)cc7[nH]cc(O[C@@H]8O[C@H](CO)[C@@H](O)[C@H](O)[C@H]8O)c7c6Br)nc(OCCOCCOCCOc6c(Br)cc7[nH]cc(O[C@@H]8O[C@H](CO)[C@@H](O)[C@H](O)[C@H]8O)c7c6Br)n5)CC4)n3)ccc12 [Compound V, 2,4-Bis[1-(3-(β-D-glucopyranosyloxy)-4,6-dibromo-1H-indol-5-yl)-1,4,7,10-tetraoxadec-10-yl]-6-[4-(3-(2-(1-azido-3,6,9,12,15-pentaoxoheptadecylamino)-4-[2-((4-methyl-2H-chromen-2-one-7-yl)amino)ethylamino]-1,3,5-triazin-6-yloxy)propyl)-4-(3-sulfopropyl)piperazin-1-yl]-1,3,5-triazine]			62.7	51.6	11.1	2.8	0.3	3.1	3.1			
OCCOCCOCCOc1c(Br)cc2[nH]cc(O[C@@H]3O[C@H](CO)[C@@H](O)[C@H](O)[C@H]3O)c2c1Br [compound 33, 4,6-Dibromo-5-[1-hydroxy-3,6,9-trioxanon-9-yl]-1H-indol-3-yl β-D-glucopyranoside]	99% and 99 ± 5^g %									52% and 52^g %	< 5	81% and 81 ± 5%
